Assay results from paper PMC8073777, “Design, Synthesis, Biological Evaluation and In Silico Studies of Pyrazole-Based NH2-Acyl Oseltamivir Analogues as Potent Neuraminidase Inhibitors” (Pharmaceuticals, 2021).

Target: A/H3N2 influenza NA (Influenza A virus (H3N2), UniProt Q91IQ5)
Assay type: biochemical, A/H3N2 influenza virus (clinical isolate from Hong Kong)
Settings: 10 µM

Row | Compound | Inhibitory rate against A/H3N2 influenza NA
1 | CCC(CC)O[C@@H]1C=C(C(=O)O)C[C@H](NC(=O)c2cc(C3CC3)nn2-c2cccc(C)c2)[C@H]1NC(C)=O [Compound 26c, (3R,4R,5S)-4-acetamido-5-(3-cyclopropyl-1-(m-tolyl)-1H-pyrazole-5-carboxamido)-3-(pentan-3-yloxy) cyclohex-1-ene-1-carboxylic acid] | 31.53%
2 | CCC(CC)O[C@@H]1C=C(C(=O)O)C[C@H](NC(=O)c2cc(C3CC3)nn2-c2ccc(Br)cc2)[C@H]1NC(C)=O [Compound 26d, (3R,4R,5S)-4-acetamido-5-(1-(4-bromophenyl)-3-cyclopropyl-1H-pyrazole-5-carboxamido)-3-(pentan-3-yloxy) cyclohex-1-ene-1-carboxylic acid] | 37.17%
3 | CCC(CC)O[C@@H]1C=C(C(=O)O)C[C@H](N)[C@H]1NC(C)=O [OC, oseltamivir carboxylate, reference compound] | 97.46%
